Biological target: T1, CMMBP (CmmC) (Arthrobacter globiformis, UniProt D2YYD8)
T1 construct: N-terminal 6xHis tag, pET-28b (NdeI/BamHI), E. coli Rosetta2 (DE3); structure domains span residues 31-421; tag cleavage not mentioned
T1 sequence (D2YYD8 26-421): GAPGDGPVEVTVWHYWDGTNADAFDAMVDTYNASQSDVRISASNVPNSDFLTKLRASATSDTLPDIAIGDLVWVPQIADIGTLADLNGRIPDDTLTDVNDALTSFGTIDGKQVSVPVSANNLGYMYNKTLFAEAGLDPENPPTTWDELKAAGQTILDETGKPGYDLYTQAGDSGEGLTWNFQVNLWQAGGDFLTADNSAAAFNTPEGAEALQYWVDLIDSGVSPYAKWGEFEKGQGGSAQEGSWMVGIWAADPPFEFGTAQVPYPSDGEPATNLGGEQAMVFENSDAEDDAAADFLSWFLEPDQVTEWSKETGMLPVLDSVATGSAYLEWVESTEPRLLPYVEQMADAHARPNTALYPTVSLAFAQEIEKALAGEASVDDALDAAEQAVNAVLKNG
Assay: isothermal titration calorimetry
Format: binding

Row | Kd | Ka (×10^8 M^-1) (20 mM Tris-HCl pH 8.0, 25 °C, one-site model, printed in parentheses as not reliable (weak affinity, low c value)) | Structure (SMILES)
1 | 9.6 nM | – | OC[C@H]1O[C@@H]2OC[C@H]3O[C@H](O[C@H]4[C@H](O)[C@@H](O)[C@@H](OC[C@H]5O[C@H](O[C@H]1[C@H](O)[C@H]2O)[C@H](O)[C@@H](O)[C@@H]5O)O[C@@H]4CO)[C@H](O)[C@@H](O)[C@@H]3O [CMM, cyclo-{→6}-α-D-Glcp-(1→4)-α-D-Glcp-(1→6)-α-D-Glcp-(1→4)-α-D-Glcp-(1→)]
2 | – | (0.0022 ± 0.0014) × 10^8 | OC[C@H]1O[C@H](O[C@H]2[C@H](O)[C@@H](O)[C@@H](OC[C@H]3O[C@H](O[C@H]4[C@H](O)[C@@H](O)C(O)O[C@@H]4CO)[C@H](O)[C@@H](O)[C@@H]3O)O[C@@H]2CO)[C@H](O)[C@@H](O)[C@@H]1O (stereo partly drawn) [MM, α-maltosyl-(1→6)-maltose]
